Results reported in ChEMBL document CHEMBL1201862, “PubChem BioAssay data set” (2004).
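1) Cells in 96-well plates. 2) Compound, 48 h, 5 concentrations. 3) Linear interpolation between surrounding doses. 4) Unreached endpoint = highest concentration. Here, GI50 denotes the concentration required for 50% inhibition of growth.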 Activity calls are given as the source filed them. No stated cut-off is given here; in the data, active = GI50 up to about 1.1 µM and inactive = higher.

Legend:
Test in all cases: NCI tumour cell line growth inhibition, 48 h
[1] = tested on: MDA-MB-231
[2] = tested on: SK-OV-3
[3] = tested on: SW-620
[4] = tested on: Malme-3M
[5] = tested on: NCI-H460
[6] = tested on: SF-295
[7] = tested on: SNB-75
[8] = tested on: SK-MEL-2
[9] = tested on: SN12C
[10] = tested on: NCI-H23
[11] = tested on: HL-60
[12] = tested on: HCT-15
[13] = tested on: DU-145
[14] = tested on: IGROV-1
[15] = tested on: EKVX
[16] = tested on: MCF7
[17] = tested on: T47D
[18] = tested on: SK-MEL-5
[19] = tested on: 786-0
[20] = tested on: CCRF-CEM

| SMILES | GI50 [1] | GI50 [2] | GI50 [3] | GI50 [4] | GI50 [5] | GI50 [6] | GI50 [7] | GI50 [8] | GI50 [9] | GI50 [10] | GI50 [11] | GI50 [12] [µM] | GI50 [13] | GI50 [14] | GI50 [15] | GI50 [16] | GI50 [17] | GI50 [18] | GI50 [19] | GI50 [20] |
| --- | --- | --- | --- | --- | --- | --- | --- | --- | --- | --- | --- | --- | --- | --- | --- | --- | --- | --- | --- | --- |
| OC(C1CCCC1=N/N=C1/CCCC1C(O)(C(F)(F)Cl)C(F)(F)Cl)(C(F)(F)Cl)C(F)(F)Cl (stereo not given) | > 10 µM (inactive) | > 10 µM (inactive) | > 10 µM (inactive) | > 10 µM (inactive) | > 10 µM (inactive) | > 10 µM (inactive) | > 10 µM (inactive) | > 10 µM (inactive) | > 10 µM (inactive) | > 10 µM (inactive) | > 10 µM (inactive) | > 10 | > 10 µM (inactive) | > 10 µM (inactive) | > 10 µM (inactive) | > 10 µM (inactive) | > 10 µM (inactive) | > 10 µM (inactive) | > 10 µM (inactive) | > 10 µM (inactive) |
| O=C(NCCCN1CCN(CCCNC(=O)c2cc(-c3ccccc3)nc3ccccc23)CC1)c1cc(-c2ccccc2)nc2ccccc12 | 26.1 µM (inactive) | 16.4 µM (inactive) | 9.71 µM (inactive) | 1.59 µM (inactive) | 9.2 µM (inactive) | 12.3 µM (inactive) | > 38.1 µM (inactive) | 16.3 µM (inactive) | 16.3 µM (inactive) | 37.3 µM (inactive) | > 32.7 µM (inactive) | 19.4 | 29.8 µM (inactive) | 9.53 µM (inactive) | 21.5 µM (inactive) | 9.53 µM (inactive) | 8.99 µM (inactive) | 2.02 µM (inactive) | 7.11 µM (inactive) | 11.6 µM (inactive) |
| CCOC(=O)CCC(NC(=O)OCc1ccccc1)C(=O)NNC(=O)OC(C)(C)C (stereo not given) | 41.7 µM (inactive) | > 100 µM (inactive) | > 100 µM (inactive) | > 100 µM (inactive) | > 100 µM (inactive) | > 100 µM (inactive) | > 100 µM (inactive) | > 100 µM (inactive) | > 100 µM (inactive) | > 100 µM (inactive) | > 100 µM (inactive) | > 100 | > 100 µM (inactive) | > 100 µM (inactive) | > 100 µM (inactive) | > 100 µM (inactive) | > 100 µM (inactive) | > 100 µM (inactive) | > 100 µM (inactive) | > 100 µM (inactive) |
| COc1ccccc1NC1=NCC(C)S1 (stereo not given) | > 100 µM (inactive) | > 100 µM (inactive) | > 100 µM (inactive) | > 100 µM (inactive) | > 100 µM (inactive) | > 100 µM (inactive) | > 100 µM (inactive) | > 100 µM (inactive) | > 100 µM (inactive) | > 100 µM (inactive) | > 100 µM (inactive) | > 100 | > 100 µM (inactive) | > 100 µM (inactive) | > 100 µM (inactive) | > 100 µM (inactive) | > 100 µM (inactive) | > 100 µM (inactive) | > 100 µM (inactive) | > 100 µM (inactive) |
| CC(=O)OCC1OC(Oc2cc(C)c(O)cc2C/C=C(\C)CC/C=C(\C)C[C@@H](C=C(C)C)OC(C)=O)C(O)C(OC(C)=O)C1OC(C)=O (stereo not given in full) | 37.3 µM (inactive) | > 50 µM (inactive) | 23.6 µM (inactive) | > 50 µM (inactive) | 14.2 µM (inactive) | 22.2 µM (inactive) | 13.2 µM (inactive) | 19.9 µM (inactive) | 20.2 µM (inactive) | 23.3 µM (inactive) | 9.79 µM (inactive) | 16.3 | 28.6 µM (inactive) | 33.6 µM (inactive) | 38.6 µM (inactive) | 16 µM (inactive) | 10.1 µM (inactive) | 9.14 µM (inactive) | 39.1 µM (inactive) | 9.46 µM (inactive) |
| Cc1cc2nc(-c3c(F)cccc3F)n(Cc3c(F)cccc3F)c2cc1C | 14 µM (inactive) | 16.9 µM (inactive) | 16.3 µM (inactive) | 27.9 µM (inactive) | 13.6 µM (inactive) | 13.4 µM (inactive) | 3.37 µM (inactive) | 15.8 µM (inactive) | 16.4 µM (inactive) | 19.6 µM (inactive) | 16.3 µM (inactive) | 14.4 | 23.6 µM (inactive) | 14.3 µM (inactive) | 8.24 µM (inactive) | 15.2 µM (inactive) | 14.8 µM (inactive) | 13.6 µM (inactive) | 17.9 µM (inactive) | 22.7 µM (inactive) |
| Cc1nc2cc3ccccc3cc2[nH]c1=O | 72.3 µM (inactive) | > 100 µM (inactive) | > 100 µM (inactive) | > 100 µM (inactive) | 61.1 µM (inactive) | 91.2 µM (inactive) | 24.5 µM (inactive) | > 100 µM (inactive) | > 100 µM (inactive) | 89.5 µM (inactive) | > 100 µM (inactive) | 82 | > 100 µM (inactive) | 47.9 µM (inactive) | 0.805 µM (active) | 30.2 µM (inactive) | 55.2 µM (inactive) | 96.2 µM (inactive) | 44.9 µM (inactive) | 51.2 µM (inactive) |
| CC1(C)CCCCCCC2OC2CCCCCC(C)(C)C1=O (stereo not given) | 29.9 µM (inactive) | 69.8 µM (inactive) | 52.4 µM (inactive) | > 53.8 µM (inactive) | 36.1 µM (inactive) | 31.2 µM (inactive) | 28 µM (inactive) | 31.8 µM (inactive) | > 44.8 µM (inactive) | 57.7 µM (inactive) | 22.4 µM (inactive) | > 89.5 | > 71.1 µM (inactive) | 47.8 µM (inactive) | 60.1 µM (inactive) | 26.4 µM (inactive) | 29.9 µM (inactive) | 22.3 µM (inactive) | 39.3 µM (inactive) | 28.2 µM (inactive) |
| Cn1c(=O)n(-c2c3ccccc3c(Cl)c3ccccc23)n(C(C)(C)C)c1=O | 97.1 µM (inactive) | > 100 µM (inactive) | > 100 µM (inactive) | > 100 µM (inactive) | > 100 µM (inactive) | > 100 µM (inactive) | 12.1 µM (inactive) | > 100 µM (inactive) | > 100 µM (inactive) | > 100 µM (inactive) | > 100 µM (inactive) | > 100 | > 100 µM (inactive) | > 100 µM (inactive) | > 100 µM (inactive) | > 100 µM (inactive) | > 100 µM (inactive) | > 100 µM (inactive) | 48.8 µM (inactive) | > 100 µM (inactive) |
| CC(C)=CCC[C@@H](C)C1=C(O)C(=O)C(C)=C(Nc2ccccc2)C1=O | 22.5 µM (inactive) | 27.6 µM (inactive) | 22.8 µM (inactive) | 17.8 µM (inactive) | 13.3 µM (inactive) | 5.77 µM (inactive) | 31.5 µM (inactive) | 20.2 µM (inactive) | 23.9 µM (inactive) | 24.9 µM (inactive) | 2.98 µM (inactive) | 7.5 | 24.2 µM (inactive) | 17.8 µM (inactive) | 24.2 µM (inactive) | 24.5 µM (inactive) | 19.9 µM (inactive) | 17.6 µM (inactive) | 25.3 µM (inactive) | 1.62 µM (inactive) |
